From US8609635B2, “Fused tricyclic silyl compounds and methods of use thereof for the treatment of viral diseases” (priority 2010, dated 2013)
Where two headings read alike, the source gives them in different places.

Assays:
HCV replicon gt2a_JFH = assay: Cell-based HCV replicon assay (TaqMan), genotype 2a (JFH); conditions: replicon 2a (JFH), replicon RNA by TaqMan, day 3
Experimental: (§1) Measurement of inhibition by compounds of the present invention was performed using the HCV replicon system. Several different replicons encoding different HCV genotypes or mutations were used. In addition, potency measurements were made using different formats of the replicon assay, including different ways of measurements and different plating formats. See Jan M. Vrolijk et al., A replicons-based bioassay for the measurement of interferons in patients with chronic hepatitis C, 110 J. VIROLOGICAL METHODS 201 (2003); Steven S. Carroll et al., Inhibition of Hepatitis C Virus RNA Replication by 2′-Modified Nucleoside Analogs, 278(14) J. BIOLOGICAL […] 11979 (2003). However, the underlying principles are common to all of these determinations, and are outlined below.
(§2) Compounds of the present invention were assayed for cell-based anti-HCV activity using the following protocol. Replicon cells were seeded at 5000 cells/well in 96-well collagen I-coated Nunc plates in the presence of the test compound. Various concentrations of test compound, typically in 10 serial 2-fold dilutions, were added to the assay mixture, with the starting concentration ranging from 250 μM to 1 μM. The final concentration of DMSO was 0.5%, fetal bovine serum was 5%, in the assay media. Cells were harvested on day 3 by the addition of 1× cell lysis buffer (Ambion cat #8721). The replicon RNA level was measured using real time PCR (TaqMan® assay). The amplicon was located in 5B. The PCR primers were: 5B.2F, […] (SEQ. ID NO. 1); 5B.2R, […] (SEQ. ID NO. 2); the probe sequence was FAM-labeled […] (SEQ. ID NO. 3). GAPDH RNA was used as endogenous control and was amplified in the same reaction as NS5B (multiplex PCR) using primers and VIC-labeled probe recommended by the manufacturer (PE Applied Biosystem). The real-time RT-PCR reactions were run on ABI PRISM 7900HT Sequence Detection System using the following program: 48° C. for 30 minutes, 95° C. for 10 minutes, 40 cycles of 95° C. for 15 sec, 60° C. for 1 minute. The ΔCT values (CT5B-CTGAPDH) were plotted against the concentration of test compound and fitted to the sigmoid dose-response model using XLfit4 (MDL). […] Alternatively, to quantitate the absolute amount of replicon RNA, a standard curve was established by including serially diluted T7 transcripts of replicon RNA in the Taqman assay. All TaqMan® reagents were from PE Applied Biosystems. Such an assay procedure was described in detail in e.g. Malcolm et al., Antimicrobial Agents and Chemotherapy 50: 1013-1020 (2006).
(§3) Wherein gt1a_H77 was prepared as described in Yi et al., J Virol. 2004, 78(15):7904-15; gt1b_con1 was prepared as described in Lohmann et al., Science 1999, 285(5424):110-3; and gt2a_JFH was prepared as described in Kato et al., Gastroenterology. 2003, 125(6):1808-17. Chimeric replicons contain NS5A from patient isolates of genotypes 1a, 1b, 2b, 3a and 4a as indicated.

HCV replicon gt1b_con1 = assay: Cell-based HCV replicon assay (TaqMan), genotype 1b (Con1); conditions: replicon 1b (Con1), replicon RNA by TaqMan, day 3
Experimental: as §1, §2, §3

[1] = test system: HCV replicon 1a (Y93H) mutant; assay: Cell-based HCV replicon assay (TaqMan), genotype 1a mutant Y93H; conditions: read-out: HCV replicon EC50 1a (Y93H)
Experimental: as §1, §2, §3

HCV replicon gt1a_H77 = assay: Cell-based HCV replicon assay (TaqMan), genotype 1a (H77); conditions: replicon 1a (H77), replicon RNA by TaqMan, day 3
Experimental: as §1, §2, §3

[2] = test system: HCV chimeric replicon with NS5A of genotype 2b (AB03090); assay: Cell-based HCV replicon assay (TaqMan), chimeric replicon genotype 2b (AB03090); conditions: replicon RNA by TaqMan, day 3
Experimental: as §1, §2, §3

[3] = test system: HCV chimeric replicon with NS5A of genotype 3a (NC00982); assay: Cell-based HCV replicon assay (TaqMan), chimeric replicon genotype 3a (NC00982); conditions: replicon RNA by TaqMan, day 3
Experimental: as §1, §2, §3

[4] = test system: HCV replicon 1a (L31V) mutant; assay: Cell-based HCV replicon assay (TaqMan), genotype 1a mutant L31V; conditions: read-out: HCV replicon EC50 1a (L31V)
Experimental: as §1, §2, §3

[5] = test system: HCV chimeric replicon with NS5A of genotype 4a (DQ41878); assay: Cell-based HCV replicon assay (TaqMan), chimeric replicon genotype 4a (DQ41878); conditions: read-out: HCV replicon EC50 4a (DQ41878)
Experimental: as §1, §2, §3

[6] = Hepatitis C virus, 72 h, read-out: HCV replicon EC50 2b (AB03090), chimeric replicon 2b (AB03090)
[7] = Hepatitis C virus, 72 h, read-out: HCV replicon EC50 3a (NC00982), chimeric replicon 3a (NC00982)
[8] = replicon 1a mutant Y93H, replicon RNA by TaqMan, day 3
[9] = read-out: HCV replicon EC50 2b (AB03090), chimeric replicon 2b (AB03090)
[10] = read-out: HCV replicon EC50 3a (NC00982), chimeric replicon 3a (NC00982)
[11] = chimeric replicon 4a (DQ41878), replicon RNA by TaqMan, day 3

| Compound | EC50 (HCV replicon gt2a_JFH; Hepatitis C virus, 72 h) [nM] | EC50 (HCV replicon gt1b_con1; Hepatitis C virus, 72 h) [nM] | EC50 ([1]; Hepatitis C virus, 72 h) [nM] | EC50 (HCV replicon gt1a_H77; Hepatitis C virus, 72 h) [nM] | EC50 [2, 6] [nM] | EC50 [3, 7] [nM] | EC50 ([4]; Hepatitis C virus, 72 h) [nM] | EC50 (HCV replicon gt2a_JFH) [nM] | EC50 (HCV replicon gt1b_con1) [nM] | EC50 [1, 8] [nM] | EC50 (HCV replicon gt1a_H77) [nM] | EC50 [2, 9] [nM] | EC50 [3, 10] [nM] | EC50 [5, 11] [nM] | EC50 ([4]; replicon 1a mutant L31V, replicon RNA by TaqMan, day 3) [nM] | EC50 ([5]; Hepatitis C virus, 72 h) [nM] |
| --- | --- | --- | --- | --- | --- | --- | --- | --- | --- | --- | --- | --- | --- | --- | --- | --- |
| COC(=O)N[C@H](C(=O)N1C[Si](C)(C)C[C@H]1c1ncc(-c2ccc(-c3ccc4c(ccc5nc([C@@H]6CC(F)(F)CN6C(=O)[C@@H](NC(=O)OC)C(C)C)[nH]c54)c3)nc2)[nH]1)C(C)C [Compound 66] | 0.08 | 0.005 | 260 | 0.002 | > 100 | 0.15 | 32 |  |  |  |  |  |  |  |  |  |
| COC(=O)N[C@H](C(=O)N1C[Si](C)(C)C[C@H]1c1ncc(-c2ccc(-c3ccc4c(ccc5nc([C@@H]6CC(F)(F)CN6C(=O)[C@@H](NC(=O)OC)C(C)C)[nH]c54)c3)cc2)[nH]1)C(C)C [Compound 94] |  |  |  |  |  |  |  | 0.03 | 0.002 | 65 | 0.008 | 129 | 0.2 | 0.02 | 10 |  |
| COC(=O)N[C@H](C(=O)N1CC[C@H](C)[C@H]1c1ncc(-c2ccc(-c3ccc4c(ccc5nc([C@@H]6C[Si](C)(C)CN6C(=O)[C@@H](NC(=O)OC)C(C)C)[nH]c54)c3)cc2)[nH]1)C(C)C [Compound 96] | 0.013 | 0.004 | 51 | 0.04 | 49.3 | 0.099 | 1 |  |  |  |  |  |  |  |  | 0.936 |
| COC(=O)N[C@H](C(=O)N1C[Si](C)(C)C[C@H]1c1ncc(-c2ccc(-c3ccc4c(ccc5nc([C@@H]6CC(F)(F)CN6C(=O)[C@@H](NC(=O)OC)C(C)C)[nH]c54)c3)cc2)[nH]1)C(C)C [Compound 54] | 0.03 | 0.002 | 65 | 0.009 | 128 | 0.18 | 10 |  |  |  |  |  |  |  |  | 0.02 |
| COC(=O)N[C@H](C(=O)N1CC(F)(F)C[C@H]1c1ncc(-c2ccc(-c3ccc4c(ccc5nc([C@@H]6C[Si](C)(C)CN6C(=O)[C@@H](NC(=O)OC)C(C)C)[nH]c54)c3)cc2)[nH]1)C(C)C [Compound 92] |  |  |  |  |  |  |  | 0.02 | 0.003 | 46 | 0.015 | 48 | 0.35 | 0.02 |  |  |
| COC(=O)N[C@H](C(=O)N1C[Si](C)(C)C[C@H]1c1nc2ccc3cc(-c4ccc(-c5cnc([C@@H]6[C@@H]7C[C@@H]([C@@H](F)[C@H]7F)N6C(=O)[C@@H](NC(=O)OC)C(C)C)[nH]5)cc4)ccc3c2[nH]1)C(C)C [Compound 100] | 0.023 | 0.002 | 204 | 0.043 |  | 7.4 | 117 |  |  |  |  |  |  |  |  | < 0.2 |
| COC(=O)N[C@H](C(=O)N1C[Si](C)(C)C[C@H]1c1nc2ccc3cc(-c4ccc(-c5cnc([C@@H]6C[C@H]7C[C@H]7N6C(=O)[C@@H](NC(=O)OC)C(C)C)[nH]5)cc4)ccc3c2[nH]1)C(C)C [Compound 97] | 0.005 | 0.002 | 30 | 0.005 | 17.1 | 0.09 | 15 |  |  |  |  |  |  |  |  | 0.029 |
| COC(=O)N[C@H](C(=O)N1C[Si](C)(C)C[C@H]1c1nc2ccc3cc(-c4ccc(-c5cnc([C@@H]6CCCN6C(=O)[C@@H](NC(=O)OC)C67CC(C(F)(F)F)(C6)C7)[nH]5)cc4)ccc3c2[nH]1)C(C)C [Compound 81] | 0.712 | 0.012 | > 1000 | 0.94 |  | 9.69 | > 100 |  |  |  |  |  |  |  |  | > 10 |
| COC(=O)N[C@H](C(=O)N1CCC(F)(F)C[C@H]1c1ncc(-c2ccc(-c3ccc4c(ccc5nc([C@@H]6C[Si](C)(C)CN6C(=O)[C@@H](NC(=O)OC)C(C)C)[nH]c54)c3)cc2)[nH]1)C(C)C [Compound 85] | 0.065 | 0.009 | 728 | 0.102 |  | 0.69 | 89 |  |  |  |  |  |  |  |  | 1.16 |
| COC(=O)N[C@H](C(=O)N1CC[C@H](C)[C@H]1c1nc2ccc3cc(-c4ccc(-c5cnc([C@@H]6C[Si](C)(C)CN6C(=O)[C@@H](NC(=O)OC)C(C)C)[nH]5)cc4)ccc3c2[nH]1)C(C)C [Compound 95] | 0.032 | 0.015 | 210 | > 0.1 |  | 0.066 | 9 |  |  |  |  |  |  |  |  | 1.22 |
